Test results as given in the supplement of paper PMC10307832.

Assays:
Experiment in all cases: relative viability (nuclei count vs DMSO), 5 days (fraction); higher = more cells survive
[1] = compound: CN(C)CC1=CC(=CC=C1)N=C(C2=CC=CC=C2)C3=C(NC4=C3C=CC(=C4)C(=O)N(C)C)O
How it was run: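 A plate was accepted only when its control CV was below 25% and the cells had doubled at least once. Viability is defined from nuclear counts as treated wells divided by vehicle wells, with the median taken across plates. That median covers lung cancer cell lines grown in 1536-well plates, dosed by pinning at five √10-spaced library-drug concentrations, and counted in MetaXpress from 4× Hoechst images after 5 days.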

[2] = compound: CN(C)CC1=CC(=CC=C1)N=C(C2=CC=CC=C2)C3=C(NC4=C3C=CC(=C4)C(=O)N(C)C)O + N=C(N)NC(=N)NCCc1ccccc1 [Phenformin] (partner 250 µM)
How it was run: (§1)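 One day after seeding in 1536-well plates, lung cancer cell lines were dosed by pin tool. Dosing was either single-drug or a fixed anchor-drug dose plus five library-drug doses (not always all listed) in √10 steps. After 5 days, nuclei were stained in one fix-and-stain step and counted on 4× images, and relative viability is the nuclei count of treated wells over that of vehicle wells, given as the median of duplicate plates.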

[3] = compound: CN(C)CC1=CC(=CC=C1)N=C(C2=CC=CC=C2)C3=C(NC4=C3C=CC(=C4)C(=O)N(C)C)O + CC(=O)Nc1cccc(-n2c(=O)n(C3CC3)c(=O)c3c(Nc4ccc(I)cc4F)n(C)c(=O)c(C)c32)c1 [Trametinib] (partner 0.02 µM)
How it was run: as §1

[4] = compound: CN(C)CC1=CC(=CC=C1)N=C(C2=CC=CC=C2)C3=C(NC4=C3C=CC(=C4)C(=O)N(C)C)O + O=C(c1cc(Cc2n[nH]c(=O)c3ccccc23)ccc1F)N1CCN(C(=O)C2CC2)CC1 [Olaparib] (partner 8 µM)
How it was run: as §1

Cell Line	relative viability ([1]; 0.08 µM)	relative viability ([1]; 0.253 µM)	relative viability ([1]; 0.8 µM)	relative viability ([1]; 2.53 µM)	relative viability ([1]; 8 µM)	relative viability ([2]; first compound 0.08 µM)	relative viability ([2]; first compound 0.253 µM)	relative viability ([2]; first compound 0.8 µM)	relative viability ([2]; first compound 2.53 µM)	relative viability ([2]; first compound 8 µM)	relative viability ([3]; first compound 0.08 µM)	relative viability ([3]; first compound 0.253 µM)	relative viability ([3]; first compound 0.8 µM)	relative viability ([3]; first compound 2.53 µM)	relative viability ([3]; first compound 8 µM)	relative viability ([4]; first compound 0.08 µM)	relative viability ([4]; first compound 0.253 µM)	relative viability ([4]; first compound 0.8 µM)	relative viability ([4]; first compound 2.53 µM)	relative viability ([4]; first compound 8 µM)
UMC-11	1.05	0.934	0.98	0.924	0.957	0.332	0.311	0.309	0.301	0.253	0.836	0.674	0.716	0.576	0.742	0.37	0.368	0.344	0.371	0.349
NCI-H460	0.981	1.04	1.04	0.933	1.01	0.592	0.491	0.558	0.43	0.449	0.142	0.133	0.195	0.0771	0.163	0.46	0.447	0.433		0.428
EMC-BAC-2	1.02	1.06	1.03	0.939	1.08	0.496	0.506	0.504	0.478	0.55	0.942	0.965	0.886	0.881	0.969	0.507	0.526	0.543	0.449	0.507
NCI-H1792	0.997	1.05	0.881	0.949	0.8	0.255	0.211	0.357	0.179	0.231	0.473	0.371	0.485	0.501	0.425	0.536	0.452	0.479	0.387	0.422
SW 900	0.997	0.886	0.983	0.934	0.937	0.613	0.668	0.646	0.492	0.602	0.819	0.738	0.702	1.04	1.24	0.813	0.962	1.02	0.8	0.967
NCI-H647	0.997	0.864	0.888	0.909	0.78	0.521	0.539	0.463	0.555	0.318	0.463	0.492	0.434	0.388	0.299	0.386	0.579	0.523	0.575	0.305
H3255	0.942	1.02	0.889	1.02	1.04	0.44	0.356	0.338	0.392	0.371	0.64	0.642		0.66	0.692	0.577	0.57	0.598	0.574	0.608
NCI-H1975	0.955	0.915	0.85	0.926	0.789	0.378	0.407	0.357	0.393	0.36	0.368	0.323	0.304	0.298	0.238	0.773	0.829	0.815	0.755	0.754
